Results from PubChem BioAssay AID2060495 (Molecular Pharmacology Branch, DTP, NCI, 2025).

Tested on: 521955-158-R2-J5-PDC complex spheroid viability
Experiment: Anticancer human tumor 521955-158-R2-J5-PDC patient-derived pancreatic carcinoma cell line growth inhibition [GQUAD]
Settings: for IC50: curve of first compound; for viability, T/C: stronger effect = lower value
Excerpt: DNA G-quadruplex Stabilizer Agents in Combinations in Complex Spheroids
A high-throughput screen of multi-cell type tumor spheroids was designed to identify active combinations of DNA G-quadruplex stabilizer agents and targeted small molecules. Complex spheroids include a stromal component modeled by human endothelial cells (HUVEC) and fibroblasts modeled by human mesenchymal stem cells (MSCs). The concentration ranges selected for each drug and investigational agent were based upon clinically achievable concentrations if the clinical Cmax of the agent was known.
Compounds. The drugs and investigational agents: pidnarulex (CX-5461; NSC782164), APTO-253 (NSC789042), BRACO-19 (NSC847499), peposertib (NSC802822), ceralasertib (NSC780249), elimusertib (NSC800525), camonsertib (NSC841442), AZD-1390 (NSC803789), olaparib (NSC753686), talazoparib (NSC767125), ART-558 (NSC835418), sotorasib (NSC818433), MRTX-1133 (NSC836407), SN-38 (NSC673596), topotecan (NSC609699), etoposide (NSC141540), doxorubicin (NSC123127), gemcitabine (NSC613327), 5-fluorouracil (NSC19893), paclitaxel (NSC125973), vemurafenib (NSC761431), panobinostat (NSC761190), R-306465 (JNJ-16241199; NSC773264), adavosertib (NSC754352), TP-3654 (NSC805149), carboplatin (NSC241240), KSQ-4279 (NSC840948), and staurosporine (NSC755774) were obtained from the National Cancer Institute (NCI) Developmental Therapeutics Program Chemical Repository (34). The FDA-approved anticancer drug set is available from the NCI Developmental Therapeutics Program. […] The stock solutions were prepared in dimethyl sulfoxide (DMSO, Sigma-Aldrich, St. Louis, MO, cat. D2650) at 800-fold the tested concentration and stored at -70 degrees C prior to their use. All drugs and investigational agents were tested over a range starting from a high concentration at or near the clinical Cmax and decreasing in half-log increments. If the clinical Cmax for an agent had not been determined, the highest concentration tested was 10 microM.
2.3 Cell Culture. All cells were maintained in an incubator at 37 degrees C and 5% CO2 with 95% humidity. The PDC lines were cultured according to standard operating procedures established by the NCI PDMR. All PDCs were thawed and cultured in Matrigel-coated flasks prepared with a working solution of 1X Ham's F-12 nutrient mix, without supplementation (Invitrogen, cat. 11765054), 100 U/mL penicillin-streptomycin (Invitrogen, cat. 15140122), and 2.5% Matrigel (Corning Inc., cat. 354248) for the first three passages. The 857933-349-R-J2-PDC line was cultured in 6C/Colon 1B media, which includes advanced DMEM/F-12 (Thermo Fisher Scientific, cat. 12634028), 10 mM HEPES (Thermo Fisher Scientific, cat. 15630080), 1X GlutaMAX supplement (Thermo Fisher Scientific, cat. 35050061), 0.1 mg/mL primocin (InvivoGen, cat. ant-pm-2), 10% defined fetal bovine serum, heat inactivated (HyClone Laboratories Inc., cat. SH30070.03HI), 50% L-WRN conditioned media (ATCC, cat. CRL-3276), 1.25 mM N-Acetyl-L-cysteine (Sigma-Aldrich, cat. A9165), 10 mM nicotinamide (Sigma-Aldrich, cat. N0636), 1X B-27 supplement (Thermo Fisher Scientific, cat. 17504044), 1X N-2 supplement (Thermo Fisher Scientific, cat. 17502048), 10 microM Y-27632 dihydrochloride (Tocris Bioscience, cat. 1254), and 50 ng/mL human EGF recombinant protein (Thermo Fisher Scientific, cat. PHG0311). The 485176-168-R4-J1-PDC line was cultured in Panc media, which includes all 6C/Colon 1B media components plus 100 ng/mL human FGF-10 (Thermo Fisher Scientific, cat. 100-26), 500 nM SB-431542 (Selleckchem, cat. S1067), and gastrin (Tocris, cat. 3006).
[…]

[1] = second compound 0.0316 µM, first compound 0.000999 µM
[2] = second compound 0.0316 µM, first compound 0.00316 µM
[3] = second compound 0.0316 µM, first compound 0.00999 µM
[4] = second compound 0.0316 µM, first compound 0.0316 µM
[5] = second compound 0.0316 µM, first compound 0.0999 µM
[6] = second compound 0.0316 µM, first compound 0.316 µM
[7] = second compound 0.1 µM, first compound 0.000999 µM
[8] = second compound 0.1 µM, first compound 0.00316 µM
[9] = second compound 0.1 µM, first compound 0.00999 µM
[10] = second compound 0.1 µM, first compound 0.0316 µM
[11] = second compound 0.1 µM, first compound 0.0999 µM
[12] = second compound 0.1 µM, first compound 0.316 µM
[13] = second compound 0.316 µM, first compound 0.000999 µM
[14] = second compound 0.316 µM, first compound 0.00316 µM
[15] = second compound 0.316 µM, first compound 0.00999 µM
[16] = second compound 0.316 µM, first compound 0.0316 µM
[17] = second compound 0.316 µM, first compound 0.0999 µM
[18] = second compound 0.316 µM, first compound 0.316 µM
[19] = second compound 1 µM, first compound 0.000999 µM
[20] = second compound 1 µM, first compound 0.00316 µM
[21] = second compound 1 µM, first compound 0.00999 µM
[22] = second compound 1 µM, first compound 0.0316 µM
[23] = second compound 1 µM, first compound 0.0999 µM
[24] = second compound 1 µM, first compound 0.316 µM
[25] = second compound 3.16 µM, first compound 0.000999 µM
[26] = second compound 3.16 µM, first compound 0.00316 µM
[27] = second compound 3.16 µM, first compound 0.00999 µM
[28] = second compound 3.16 µM, first compound 0.0316 µM
[29] = second compound 3.16 µM, first compound 0.0999 µM
[30] = second compound 3.16 µM, first compound 0.316 µM
[31] = second compound 10 µM, first compound 0.000999 µM
[32] = second compound 10 µM, first compound 0.00316 µM
[33] = second compound 10 µM, first compound 0.00999 µM
[34] = second compound 10 µM, first compound 0.0316 µM
[35] = second compound 10 µM, first compound 0.0999 µM
[36] = second compound 10 µM, first compound 0.316 µM
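Further: spheroids exposed to agents for one week before reading.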
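Wherever viability, T/C is given: 100% = DMSO vehicle control viability.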

Compound: Cn1ncnc1[C@H]1c2n[nH]c(=O)c3cc(F)cc(c23)N[C@@H]1c1ccc(F)cc1 + Cc1[nH]c2ccc(F)cc2c1-c1nc2c3cccnc3c3ncccc3c2[nH]1
- IC50 (second compound 0.0316 µM): > 316 nM
- IC50 (second compound 0.1 µM): > 316 nM
- IC50 (second compound 0.316 µM): > 316 nM
- IC50 (second compound 1 µM): > 316 nM
- IC50 (second compound 3.16 µM): > 316 nM
- IC50 (second compound 10 µM): > 316 nM
- viability, T/C [1]: 95.7%
- viability, T/C [2]: 86.3%
- viability, T/C [3]: 93.5%
- viability, T/C [4]: 91%
- viability, T/C [5]: 73.2%
- viability, T/C [6]: 59.8%
- viability, T/C [7]: 89.4%
- viability, T/C [8]: 106%
- viability, T/C [9]: 90.9%
- viability, T/C [10]: 80.4%
- viability, T/C [11]: 91.1%
- viability, T/C [12]: 74.4%
- viability, T/C [13]: 94.3%
- viability, T/C [14]: 96%
- viability, T/C [15]: 83.6%
- viability, T/C [16]: 88.7%
- viability, T/C [17]: 70.4%
- viability, T/C [18]: 73.1%
- viability, T/C [19]: 91.7%
- viability, T/C [20]: 93.7%
- viability, T/C [21]: 91%
- viability, T/C [22]: 74.2%
- viability, T/C [23]: 102%
- viability, T/C [24]: 73.6%
- viability, T/C [25]: 93%
- viability, T/C [26]: 107%
- viability, T/C [27]: 83.9%
- viability, T/C [28]: 86.8%
- viability, T/C [29]: 70.8%
- viability, T/C [30]: 69.8%
- viability, T/C [31]: 92.7%
- viability, T/C [32]: 80.5%
- viability, T/C [33]: 82.6%
- viability, T/C [34]: 86.1%
- viability, T/C [35]: 77.8%
- viability, T/C [36]: 68.1%

Compound: Cc1[nH]c2ccccc2c1CCNCc1ccc(/C=C/C(=O)NO)cc1 + CN(C)c1ccc(Nc2c3ccc(NC(=O)CCN4CCCC4)cc3nc3cc(NC(=O)CCN4CCCC4)ccc23)cc1
- IC50 (second compound 0.0316 µM): 168 nM
- IC50 (second compound 0.1 µM): 117 nM
- IC50 (second compound 0.316 µM): 156 nM
- IC50 (second compound 1 µM): 180 nM
- IC50 (second compound 3.16 µM): 119 nM
- IC50 (second compound 10 µM): 67.6 nM
- viability, T/C [1]: 132%
- viability, T/C [2]: 110%
- viability, T/C [3]: 133%
- viability, T/C [4]: 109%
- viability, T/C [5]: 72.3%
- viability, T/C [6]: 23.4%
- viability, T/C [7]: 113%
- viability, T/C [8]: 132%
- viability, T/C [9]: 128%
- viability, T/C [10]: 121%
- viability, T/C [11]: 54.8%
- viability, T/C [12]: 19.7%
- viability, T/C [13]: 105%
- viability, T/C [14]: 125%
- viability, T/C [15]: 123%
- viability, T/C [16]: 90.8%
- viability, T/C [17]: 68.7%
- viability, T/C [18]: 24.4%
- viability, T/C [19]: 107%
- viability, T/C [20]: 114%
- viability, T/C [21]: 134%
- viability, T/C [22]: 114%
- viability, T/C [23]: 82.6%
- viability, T/C [24]: 19%
- viability, T/C [25]: 91.7%
- viability, T/C [26]: 116%
- viability, T/C [27]: 119%
- viability, T/C [28]: 97%
- viability, T/C [29]: 56.9%
- viability, T/C [30]: 13.2%
- viability, T/C [31]: 70.7%
- viability, T/C [32]: 103%
- viability, T/C [33]: 79.3%
- viability, T/C [34]: 82.6%
- viability, T/C [35]: 33.3%
- viability, T/C [36]: 3.21%
